The results in this text go back to publication PMC8344021, “Discovery of Small Molecule Bak Activator for Lung Cancer Therapy” (Theranostics, 2021).

Common to all, as to assay type: cell-based, human
Test [1] has as its system NSCLC and SCLC cell lines. Nature of the test: Apoptotic cell death in panel of NSCLC and SCLC cell lines. The conditions noted are these: 1μM. As to the method:
Figure 1 Discovery of small molecule BKA-073 as a lead compound that targets BH3 domain of Bak and induces mitochondrial priming and apoptosis in lung cancer cells. (A) Schematic illustration of screening strategies used to identify the lead Bak agonist BKA-073 and its chemical structure. (B) Structural modeling of BKA-073 in the BH3 domain binding pocket of Bak protein. (C) Expression levels of Bak were analyzed by Western blot in NSCLC and SCLC cell lines. (D-E) A panel of NSCLC and SCLC cell lines were treated with BKA-073 (1μM) for 16h or 72h, followed by analysis of dynamic BH3 profiling (D) or apoptotic cell death (E), respectively. Data represent the mean ± SD, n = 3 per group. **P < 0.01, ***P < 0.001, by 2-tailed t test. TEXT PRINTED IN THE PICTURE: (A) BKA-073: MW: 361.87 […]
(§1) Supplemental Materials and Methods
(§2) Small molecule NSC14073 (BKA-073) was obtained from the Drug Synthesis and Chemistry Branch, Developmental Therapeutic Program, Division of Cancer Treatment and Diagnosis, National Cancer Institute (NCI, Bethesda, MD) (http://dtp.nci.nih.gov/RequestCompounds).
Venetoclax (ABT-199, 205807) was purchased from MedKoo Biosciences (Morrisville, NC).
Antibodies including PARP (sc-8007), Bax (sc-7480), Mcl-1 (sc-12756), cytochrome c (sc-13156) and actin (sc-47778) were purchased from Santa Cruz (Santa Cruz, CA). Bcl2 antibody (05-826) was obtained from Calbiochem (Darmstadt, Germany). Bcl-XL (ab32370), Bak (ab32371) and Bax (ab104156) antibodies were purchased from Abcam (Cambridge, MA). […]
(§3) Cells were seeded at a density of 5 × 103 per well in 96-well plates and allowed to grow overnight. After treatment with BKA-073, the surviving cell fraction was determined using the sulforhodamine B (SRB) assay as described. Optical density (OD) was measured at 510nm in a microplate reader (Synergy H1, BioTek®, Winooski, VT). […]
(§4) Apoptotic cells were detected using Annexin-V Apoptosis Detection Kit (556547, BD Biosciences, San Jose, CA) according to the manufacturer’s instructions. […]

In test [2] the test system is MDA-MB-231, MCF7, HCT-116, Ramos, OPM-1, PANC-1 and U2OS cell lines. Nature of the test: Apoptotic cell death in other types of cancer cell lines. The conditions noted are these: 1μM, 72h. As to the method:
Figure S2. BKA-073 induces mitochondrial priming and apoptosis in various type of cancers. (A) Expression levels of Bak were analyzed by Western blot in various type of cancer cell lines. (B-C) Various type of cancer cell lines were treated with BKA -073 (1µM) for 16h or 72h, followed by analysis of dynamic BH3 profiling (B) or apoptotic cell death (C), respectively.
Data represent the mean ± SD, n = 3 per group. ***P < 0.001, by 2-tailed t test.
(1 picture or pasted object on this page, not shown here)
as §1, §2
Venetoclax (ABT-199, 205807) was purchased from MedKoo Biosciences (Morrisville, NC). […]
as §3, §4

Test [3] deals with Bak oligomerization in A549 cells. The test can be described thus: Bak oligomerization by cross-linking with BMH. Conditions: 1μM, 24h, mitochondrial fraction, Western blot. As to the method:
Bak oligomerization was analyzed as described. Briefly, 10 mM Bis (maleimido) hexane (BMH) was added to the mitochondrial fraction dissolved in conjugation buffer (PBS, pH7.2) and 5mM EDTA was added for crosslinking between sulfhydryl groups of Bak proteins. The reaction mixture was incubated for 1h at room temperature. The reaction was stopped by adding quench solution (1M DTT) for 15min at room temperature. The reaction product was subjected to SDS-PAGE gel and analyzed by Western blot using a Bak antibody.
A pivotal step in the apoptosis process is the oligomerization of Bak, [44]. To assess whether BKA-073 affects the ability of Bak to form oligomers in the mitochondrial membrane, a cross-linking study with Bis (maleimido) hexane (BMH) was carried out. […] These findings indicate that BKA-073 can activate Bak through its oligomerization in mitochondria. It is known that formation of Bak oligomers in mitochondria promotes cytochrome c (Cyt c) release to induce apoptosis, [46].
In general terms: A western blot detects proteins with antibodies after separation by electrophoresis.

Structures are written as SMILES.

For the compound `COc1ccc2nc3ccccc3c(NCCNCC(C)O)c2c1` (centres unmarked) [BKA-073], in test [1] (72h), the induction of apoptosis result is on record as “potently induced”. In test [1] (A549, H157, H1975, DMS53, DMS114, H209, H526), the “sensitivity (mitochondrial priming and apoptosis), lines with relatively higher Bak” value was “more sensitive”. Moreover, the “sensitivity (mitochondrial priming and apoptosis), lines with relatively lower Bak” value in test [1] (Calu-1, H69, H128, H146) is given as “less sensitive”. Also, in test [2], the “induction of apoptotic cell death” value is “potently induced”. Moreover, the Bak oligomerization result in test [3] is “facilitated the formation of Bak dimers and trimers”.
